Data taken from PubChem BioAssay AID1918957 (Molecular Pharmacology Branch, DTP, NCI, 2023).

Tested on: NCI-H1876 complex spheroid viability
Experiment: Anticancer human tumor NCI-H1876 cell line growth inhibition [LSD1];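 also: spheroids exposed to compounds for one week before readout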;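 as to viability, T/C: 100% = DMSO vehicle-treated spheroids so lower means fewer viable cells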
Conditions: for IC50: curve of first compound; for viability, T/C: stronger effect = lower value
Procedure, shortened: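 Complex spheroids of tumor cells with HUVEC and human MSCs, exposed to iadademstat combined with other agents. Each agent tested in half-log steps from near clinical Cmax (else 10 microM top), DMSO ≤0.25%.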

[1] = second compound 0.1 µM, first compound 0.00316 µM
[2] = second compound 0.1 µM, first compound 0.01 µM
[3] = second compound 0.1 µM, first compound 0.0316 µM
[4] = second compound 0.1 µM, first compound 0.1 µM
[5] = second compound 0.1 µM, first compound 0.316 µM
[6] = second compound 0.1 µM, first compound 1 µM
[7] = second compound 0.316 µM, first compound 0.00316 µM
[8] = second compound 0.316 µM, first compound 0.01 µM
[9] = second compound 0.316 µM, first compound 0.0316 µM
[10] = second compound 0.316 µM, first compound 0.1 µM
[11] = second compound 0.316 µM, first compound 0.316 µM
[12] = second compound 0.316 µM, first compound 1 µM
[13] = second compound 1 µM, first compound 0.00316 µM
[14] = second compound 1 µM, first compound 0.01 µM
[15] = second compound 1 µM, first compound 0.0316 µM
[16] = second compound 1 µM, first compound 0.1 µM
[17] = second compound 1 µM, first compound 0.316 µM
[18] = second compound 1 µM, first compound 1 µM
[19] = second compound 3.16 µM, first compound 0.00316 µM
[20] = second compound 3.16 µM, first compound 0.01 µM
[21] = second compound 3.16 µM, first compound 0.0316 µM
[22] = second compound 3.16 µM, first compound 0.1 µM
[23] = second compound 3.16 µM, first compound 0.316 µM
[24] = second compound 3.16 µM, first compound 1 µM
[25] = second compound 10 µM, first compound 0.00316 µM
[26] = second compound 10 µM, first compound 0.01 µM
[27] = second compound 10 µM, first compound 0.0316 µM
[28] = second compound 10 µM, first compound 0.1 µM
[29] = second compound 10 µM, first compound 0.316 µM
[30] = second compound 10 µM, first compound 1 µM

O=C(C=Cn1cnc(-c2cc(C(F)(F)F)cc(C(F)(F)F)c2)n1)NNc1cnccn1 + NC1CCC(NC2CC2c2ccccc2)CC1
IC50 (second compound 0.1 µM): 0.0914 µM | IC50 (second compound 0.316 µM): 0.0819 µM | IC50 (second compound 1 µM): 0.0835 µM | IC50 (second compound 3.16 µM): 0.0751 µM | IC50 (second compound 10 µM): 0.0652 µM | viability, T/C [1]: 98.9% | viability, T/C [2]: 91.6% | viability, T/C [3]: 90.2% | viability, T/C [4]: 46.7% | viability, T/C [5]: 23.5% | viability, T/C [6]: 23.2% | viability, T/C [7]: 104% | viability, T/C [8]: 96.6% | viability, T/C [9]: 87.2% | viability, T/C [10]: 42.1% | viability, T/C [11]: 22.4% | viability, T/C [12]: 20.3% | viability, T/C [13]: 94.4% | viability, T/C [14]: 96% | viability, T/C [15]: 86.9% | viability, T/C [16]: 43.1% | viability, T/C [17]: 22.9% | viability, T/C [18]: 20.6% | viability, T/C [19]: 93.8% | viability, T/C [20]: 90.9% | viability, T/C [21]: 85.8% | viability, T/C [22]: 38.1% | viability, T/C [23]: 23.2% | viability, T/C [24]: 20.6% | viability, T/C [25]: 94.4% | viability, T/C [26]: 89.1% | viability, T/C [27]: 75.7% | viability, T/C [28]: 35.1% | viability, T/C [29]: 19.3% | viability, T/C [30]: 19.8%

Nc1ncn(C2CC(O)C(CO)S2)c(=O)n1 (stereo not given) + NC1CCC(NC2CC2c2ccccc2)CC1
IC50 (second compound 0.1 µM): > 0.3 µM | IC50 (second compound 0.316 µM): > 0.3 µM | IC50 (second compound 1 µM): > 0.3 µM | IC50 (second compound 3.16 µM): > 0.3 µM | IC50 (second compound 10 µM): > 0.3 µM | viability, T/C (second compound 0.1 µM, first compound 0.000949 µM): 106% | viability, T/C (second compound 0.1 µM, first compound 0.003 µM): 100% | viability, T/C (second compound 0.1 µM, first compound 0.00949 µM): 92.6% | viability, T/C (second compound 0.1 µM, first compound 0.03 µM): 87.9% | viability, T/C (second compound 0.1 µM, first compound 0.0949 µM): 84.5% | viability, T/C (second compound 0.1 µM, first compound 0.3 µM): 70.7% | viability, T/C (second compound 0.316 µM, first compound 0.000949 µM): 105% | viability, T/C (second compound 0.316 µM, first compound 0.003 µM): 113% | viability, T/C (second compound 0.316 µM, first compound 0.00949 µM): 98.5% | viability, T/C (second compound 0.316 µM, first compound 0.03 µM): 99.2% | viability, T/C (second compound 0.316 µM, first compound 0.0949 µM): 85.7% | viability, T/C (second compound 0.316 µM, first compound 0.3 µM): 67.8% | viability, T/C (second compound 1 µM, first compound 0.000949 µM): 109% | viability, T/C (second compound 1 µM, first compound 0.003 µM): 117% | viability, T/C (second compound 1 µM, first compound 0.00949 µM): 99.2% | viability, T/C (second compound 1 µM, first compound 0.03 µM): 93.4% | viability, T/C (second compound 1 µM, first compound 0.0949 µM): 85.2% | viability, T/C (second compound 1 µM, first compound 0.3 µM): 64.1% | viability, T/C (second compound 3.16 µM, first compound 0.000949 µM): 119% | viability, T/C (second compound 3.16 µM, first compound 0.003 µM): 113% | viability, T/C (second compound 3.16 µM, first compound 0.00949 µM): 105% | viability, T/C (second compound 3.16 µM, first compound 0.03 µM): 91.5% | viability, T/C (second compound 3.16 µM, first compound 0.0949 µM): 81.3% | viability, T/C (second compound 3.16 µM, first compound 0.3 µM): 63.2% | viability, T/C (second compound 10 µM, first compound 0.000949 µM): 118% | viability, T/C (second compound 10 µM, first compound 0.003 µM): 108% | viability, T/C (second compound 10 µM, first compound 0.00949 µM): 98.8% | viability, T/C (second compound 10 µM, first compound 0.03 µM): 96.9% | viability, T/C (second compound 10 µM, first compound 0.0949 µM): 81.1% | viability, T/C (second compound 10 µM, first compound 0.3 µM): 57%

Nc1ncn(C2CC(O)C(CO)O2)c(=O)n1 (stereo not given) + NC1CC1c1ccc(-c2cccc(O)c2)cc1
IC50 (second compound 0.1 µM): > 1 µM | IC50 (second compound 0.316 µM): > 1 µM | IC50 (second compound 1 µM): > 1 µM | IC50 (second compound 3.16 µM): > 1 µM | IC50 (second compound 10 µM): > 1 µM | viability, T/C [1]: 109% | viability, T/C [2]: 103% | viability, T/C [3]: 105% | viability, T/C [4]: 98.6% | viability, T/C [5]: 91% | viability, T/C [6]: 101% | viability, T/C [7]: 113% | viability, T/C [8]: 110% | viability, T/C [9]: 105% | viability, T/C [10]: 99% | viability, T/C [11]: 96% | viability, T/C [12]: 94.3% | viability, T/C [13]: 106% | viability, T/C [14]: 114% | viability, T/C [15]: 106% | viability, T/C [16]: 102% | viability, T/C [17]: 104% | viability, T/C [18]: 101% | viability, T/C [19]: 106% | viability, T/C [20]: 113% | viability, T/C [21]: 107% | viability, T/C [22]: 99.1% | viability, T/C [23]: 94.3% | viability, T/C [24]: 89.8% | viability, T/C [25]: 109% | viability, T/C [26]: 107% | viability, T/C [27]: 103% | viability, T/C [28]: 108% | viability, T/C [29]: 93.4% | viability, T/C [30]: 92.1%
